The structures appear in SMILES notation.

For assay [1], the species on record is Homo sapiens. Description: Antiprion activity at scrapie prion protein in human brain at 1 mM after 1 hr by Western blotting analysis. It is filed as tissue-based. On the technique in general: A western blot detects proteins with antibodies after separation by electrophoresis.
In assay [2] the test system is Mus musculus. Description: Antiamyloidogenic activity in CMV-lambda6 mouse harboring human lambda LC protein at 0.5 mg/ml administered in drinking water for 3 to 6 months by Congo red staining-based microscopy. The class given is functional.
The species named for assay [3] is Mus musculus. Description: Antiamyloidogenic activity in R6/2 mouse Huntington's disease model assessed as increase in survival rate relative to control. It is filed as functional.
The species entered for assay [4] is Mus musculus. Description: Antiamyloidogenic activity in mouse transfected with human amylin/amyloid polypeptide assessed as increase in survival time relative to control. It is filed as functional.

For `C[C@H]1c2cccc(O)c2C(=O)C2=C(O)[C@]3(O)C(=O)C(C(N)=O)=C(O)[C@@H](N(C)C)[C@@H]3[C@@H](O)[C@@H]21.O` [DOXYCYCLINE], the Activity in assay [1] was 80%; in assay [2], 23%.
On to `CN(C)c1ccc(O)c2c1C[C@H]1C[C@H]3[C@H](N(C)C)C(O)=C(C(N)=O)C(=O)[C@@]3(O)C(O)=C1C2=O` [MINOCYCLINE], for which the Survival in assay [3] amounted to 14%.
In the case of `CN(C)[C@@H]1C(O)=C(C(N)=O)C(=O)[C@@]2(O)C(O)=C3C(=O)c4c(O)cccc4[C@@](C)(O)[C@H]3C[C@@H]12` [TETRACYCLINE], the Survival in assay [4] worked out at 254%.

The values above are taken from ChEMBL document CHEMBL3112580, “A new face for old antibiotics: tetracyclines in treatment of amyloidoses” (2013).
